Data: USRE48097E1, “Cephem compounds, their production and use” (priority 2015, dated 2020)
Where two headings read alike, the source gives them in different places.

Experiments:
K. baumanii 4091 = assay: MIC against K. baumanii 4091; type: cell-based; conditions: Table 2, K. baumanii 4091, OXA-23
Source text: (§1) Without limitation, the present cephem compounds alone, or in combination with one or more β-lactamase inhibitors, may provide improved antibacterial efficacy, particularly in antibiotic-resistant bacterial strains. It is believed that the present compounds may be structurally different from known compounds and, as a result, may be more basic in nature. It is an advantage that the present compounds may extend the spectrum of effective bacterial compounds, particularly against previously-resistant bacteria (e.g. ESKAPE organisms), and/or gram negative bacteria, without significant side effects. In a preferred embodiment, the present cephem compound may comprise reference compound ceftazidime, which may be used alone, or in combination with one or more β-lactamase inhibitors, such as NXL-104. As shown, the foregoing composition was tested for minimum inhibitory concentration (MIC, μg/mL) against bacteria listed in Tables 2-3.

E. cloacae 2706 = assay: MIC against E. cloacae 2706; type: cell-based; conditions: Table 3, E. cloacae 2706, VIM-1, KPC-3
Protocol: (§2) As shown, the foregoing composition was tested for minimum inhibitory concentration (MIC, μg/mL) against bacteria listed in Tables 2-3.

S. aureus3137 = assay: MIC against S. aureus3137; type: cell-based, S. aureus; conditions: Table 2, S. aureus3137, MSSA
Source text: as §1

P. aeruginosa 2686 = assay: MIC against P. aeruginosa 2686; type: cell-based; conditions: Table 3, P. aeruginosa 2686, KPC-2
Protocol: as §2

E. coli 2666 = assay: MIC against E. coli 2666; type: cell-based; conditions: Table 3, E. coli 2666, KPC-2
Protocol: as §2

K. baumanii 4094 = assay: MIC against K. baumanii 4094; type: cell-based; conditions: Table 2, K. baumanii 4094, OXA-51
Source text: as §1

C. freundii 2487 = assay: MIC against C. freundii 2487; type: cell-based; conditions: Table 2, C. freundii 2487, Caz R, IMP S
Source text: as §1

E. cloacae596 = assay: MIC against E. cloacae596; type: cell-based, E. cloacae; conditions: Table 2, E. cloacae596, Caz R, IMP S
Source text: as §1

K. pneumoniae 2689 = assay: MIC against K. pneumoniae 2689; type: cell-based; conditions: K. pneumoniae 2689, KPC-2
Protocol: as §2

K. pneumoniae 4088 = assay: MIC against K. pneumoniae 4088; type: cell-based; conditions: Table 3, K. pneumoniae 4088, KPC-3
Protocol: as §2

E. coli 2668 = assay: MIC against E. coli 2668; type: cell-based; conditions: Table 2, E. coli 2668, OXA-48
Source text: as §1

K. baumanii 4095 = assay: MIC against K. baumanii 4095; type: cell-based; conditions: Table 2, K. baumanii 4095, OXA-48
Source text: as §1

K. pneumoniae 4104 = assay: MIC against K. pneumoniae 4104; type: cell-based; conditions: K. pneumoniae 4104, KPC-3, TEM-1
Protocol: as §2

E. coli 4103 = assay: MIC against E. coli 4103; type: cell-based; conditions: Table 3, E. coli 4103, KPC-2, TEM-1, CMY-type
Protocol: as §2

E. coli 4101 = assay: MIC against E. coli 4101; type: cell-based; conditions: Table 2, E. coli 4101, CTX-M-14, TEM-1
Source text: as §1

E. cloacae 552 = assay: MIC against E. cloacae 552; type: cell-based; conditions: Table 2, E. cloacae 552, Caz S, IMP S
Source text: as §1

S. pneumoniae 2389 = assay: MIC against S. pneumoniae 2389; type: cell-based; conditions: Table 2, S. pneumoniae 2389, Pen R
Source text: as §1

C. freundii 15 = assay: MIC against C. freundii 15; type: cell-based; conditions: Table 2, C. freundii 15, Caz R, IMP S
Source text: as §1

E. cloacae 2689 = assay: MIC against E. cloacae 2689; type: cell-based; conditions: Table 3, E. cloacae 2689, KPC-2
Protocol: as §2

P. aeruginosa 2573 = assay: MIC against P. aeruginosa 2573; type: cell-based; conditions: Table 2, P. aeruginosa 2573, OXA-10 (Class D)
Source text: as §1

E. coli 2671 = assay: MIC against E. coli 2671; type: cell-based; conditions: Table 2, E. coli 2671, VIM-19
Source text: as §1

S. pneumoniae 2403 = assay: MIC against S. pneumoniae 2403; type: cell-based; conditions: Table 2, S. pneumoniae 2403, Pen S
Source text: as §1

K. pneumoniae 2697 = assay: MIC against K. pneumoniae 2697; type: cell-based; conditions: Table 2, K. pneumoniae 2697, IMP-4
Source text: as §1

K. pneumoniae 4107 = assay: MIC against K. pneumoniae 4107; type: cell-based; conditions: K. pneumoniae 4107, KPC-2, TEM-1, SHV-11
Protocol: as §2

[1] = Enterobacter cloacae, alone, read-out: MIC
[2] = Pseudomonas aeruginosa, alone, read-out: MIC
[3] = Escherichia coli, alone, read-out: MIC
[4] = Citrobacter freundii, alone, read-out: MIC
[5] = Table 2, in combination with NXL-104
[6] = Table 3, in combination with NXL-104
[7] = Klebsiella pneumoniae, alone, read-out: MIC
[8] = Streptococcus pneumoniae, alone, read-out: MIC

Measured: MIC

CC(C)(O/N=C(\C(=O)N[C@@H]1C(=O)N2C(C(=O)[O-])=C(C[n+]3ccc4c(ccn4Cc4cc(C(=N)N)cs4)c3)CS[C@H]12)c1csc(N)n1)C(=O)O [Example 5, (6R,7R)-7-{[(2Z)-2-(2-Amino-1,3-thiazol-4-yl)-2-{[(2-carboxypropan-2-yl)oxy]imino}acetyl]amino}-3-({1-[(4-carbamimidoylthiophen-2-yl)methyl]-1H-pyrrolo[3,2-c]pyridin-5-ium-5-yl}methyl)-8-oxo-5-thia-1-azabicyclo[4.2.0]oct-2-ene-2-carboxylate]
1 µg/mL: E. coli 2666; in combination with NXL-104 | K. pneumoniae 2689; [6] | E. coli 2668; [3] | K. pneumoniae 4107; [6]
32 µg/mL: E. cloacae 2706; in combination with NXL-104 | S. aureus3137; Staphylococcus aureus, alone, read-out: MIC | P. aeruginosa 2686; [2] | C. freundii 2487; [4] | K. pneumoniae 4088; [7] | K. pneumoniae 4104; Klebsiella pneumoniae, 4104, Table 2, alone, read-out: MIC | K. pneumoniae 4107; Klebsiella pneumoniae, 4107, Table 2, alone, read-out: MIC
4 µg/mL: E. coli 4103; in combination with NXL-104 | P. aeruginosa 2573; [2]
2.00 µg/mL: K. baumanii 4091; in combination with NXL-104 | K. pneumoniae 4104; [5] | K. pneumoniae 4107; [5]
0.5 µg/mL: K. pneumoniae 4104; [6] | E. coli 4101; [3] | E. cloacae 2689; in combination with NXL-104
16.00 µg/mL: E. coli 2671; in combination with NXL-104
> 32 µg/mL: E. cloacae 2706; [1] | E. coli 4103; [3]
8 µg/mL: K. baumanii 4091; alone, read-out: MIC | P. aeruginosa 2686; in combination with NXL-104 | E. cloacae596; [1] | K. pneumoniae 2689; Klebsiella pneumoniae, 2689, Table 2, alone, read-out: MIC | K. pneumoniae 2689; Klebsiella pneumoniae, 2689, Table 3, alone, read-out: MIC
≤ 0.06 µg/mL: S. pneumoniae 2403; [8]
1.00 µg/mL: C. freundii 2487; in combination with NXL-104 | K. pneumoniae 2689; [5] | S. pneumoniae 2389; in combination with NXL-104
4.00 µg/mL: S. aureus3137; in combination with NXL-104 | K. baumanii 4094; in combination with NXL-104 | P. aeruginosa 2573; in combination with NXL-104
2 µg/mL: K. pneumoniae 4088; in combination with NXL-104 | S. pneumoniae 2389; [8]
0.25 µg/mL: E. cloacae596; in combination with NXL-104 | K. baumanii 4095; alone, read-out: MIC | K. baumanii 4095; in combination with NXL-104
0.12 µg/mL: E. coli 4101; in combination with NXL-104 | E. cloacae 552; [1]
≤0.06 µg/mL: E. coli 2668; in combination with NXL-104 | E. cloacae 552; in combination with NXL-104 | S. pneumoniae 2403; in combination with NXL-104
16 µg/mL: E. coli 2666; [3] | K. baumanii 4094; alone, read-out: MIC | K. pneumoniae 4104; Klebsiella pneumoniae, 4104, Table 3, alone, read-out: MIC | C. freundii 15; [4] | E. cloacae 2689; [1] | E. coli 2671; [3] | K. pneumoniae 2697; [7] | K. pneumoniae 4107; Klebsiella pneumoniae, 4107, Table 3, alone, read-out: MIC
0.50 µg/mL: C. freundii 15; in combination with NXL-104 | K. pneumoniae 2697; in combination with NXL-104
